From the supplement of paper PMC10307832

How the values were obtained:
Assay in all cases: relative viability (nuclei count vs DMSO), 5 days (fraction); higher = more cells survive
Pictilisib + Navitoclax = compound: CS(=O)(=O)N1CCN(Cc2cc3nc(-c4cccc5[nH]ncc45)nc(N4CCOCC4)c3s2)CC1 [Pictilisib] + CC1(C)CCC(c2ccc(Cl)cc2)=C(CN2CCN(c3ccc(C(=O)NS(=O)(=O)c4ccc(N[C@H](CCN5CCOCC5)CSc5ccccc5)c(S(=O)(=O)C(F)(F)F)c4)cc3)CC2)C1 [Navitoclax] (partner 0.5 µM)
How it was run: (§1)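 Lung cancer cell lines were seeded in 1536-well plates and dosed by pin tool the next day, with either a single drug or a fixed anchor-drug dose combined with five library-drug doses (not always all listed) spaced in √10 steps. Five days later, one step fixed the cells and stained their nuclei (final 0.05% Triton X-100, 1% formaldehyde, 1 ug/ml Hoechst), and nuclei were counted on 4× images. Relative viability is the nuclei count in treated wells divided by the count in vehicle wells, and each value is the median of duplicate plates.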

MK-2206 + Palbociclib = compound: NC1(c2ccc(-c3nc4ccn5c(=O)[nH]nc5c4cc3-c3ccccc3)cc2)CCC1 [MK-2206] + CC(=O)c1c(C)c2cnc(Nc3ccc(N4CCNCC4)cn3)nc2n(C2CCCC2)c1=O [Palbociclib] (partner 0.5 µM)
How it was run: as §1

Pictilisib + Lapatinib = compound: CS(=O)(=O)N1CCN(Cc2cc3nc(-c4cccc5[nH]ncc45)nc(N4CCOCC4)c3s2)CC1 [Pictilisib] + CS(=O)(=O)CCNCc1ccc(-c2ccc3ncnc(Nc4ccc(OCc5cccc(F)c5)c(Cl)c4)c3c2)o1 [Lapatinib] (partner 2 µM)
How it was run: as §1

MK-2206 + AZD7762 = compound: NC1(c2ccc(-c3nc4ccn5c(=O)[nH]nc5c4cc3-c3ccccc3)cc2)CCC1 [MK-2206] + NC(=O)Nc1cc(-c2cccc(F)c2)sc1C(=O)N[C@H]1CCCNC1 [AZD7762] (partner 0.2 µM)
How it was run: as §1

Pictilisib + Linsitinib = compound: CS(=O)(=O)N1CCN(Cc2cc3nc(-c4cccc5[nH]ncc45)nc(N4CCOCC4)c3s2)CC1 [Pictilisib] + C[C@]1(O)C[C@@H](c2nc(-c3ccc4ccc(-c5ccccc5)nc4c3)c3c(N)nccn32)C1 [Linsitinib] (partner 1 µM)
How it was run: as §1

Cell Line | relative viability (Pictilisib + Navitoclax; first compound 0.02 µM) | relative viability (Pictilisib + Navitoclax; first compound 0.06325 µM) | relative viability (Pictilisib + Navitoclax; first compound 0.6325 µM) | relative viability (Pictilisib + Navitoclax; first compound 2 µM) | relative viability (MK-2206 + Palbociclib; first compound 0.01 µM) | relative viability (MK-2206 + Palbociclib; first compound 0.03162 µM) | relative viability (MK-2206 + Palbociclib; first compound 0.3162 µM) | relative viability (MK-2206 + Palbociclib; first compound 1 µM) | relative viability (Pictilisib + Lapatinib; first compound 0.02 µM) | relative viability (Pictilisib + Lapatinib; first compound 0.06325 µM) | relative viability (Pictilisib + Lapatinib; first compound 0.6325 µM) | relative viability (Pictilisib + Lapatinib; first compound 2 µM) | relative viability (MK-2206 + AZD7762; first compound 0.01 µM) | relative viability (MK-2206 + AZD7762; first compound 0.03162 µM) | relative viability (MK-2206 + AZD7762; first compound 0.3162 µM) | relative viability (MK-2206 + AZD7762; first compound 1 µM) | relative viability (Pictilisib + Linsitinib; first compound 0.02 µM) | relative viability (Pictilisib + Linsitinib; first compound 0.06325 µM) | relative viability (Pictilisib + Linsitinib; first compound 0.6325 µM) | relative viability (Pictilisib + Linsitinib; first compound 2 µM)
NCI-H1437 | 1.16 | 1.14 | 1.04 | 0.677 | 0.304 | 0.332 | 0.336 | 0.286 | 0.768 | 0.859 | 0.605 | 0.313 | 1.18 | 1.11 | 1.16 | 1.09 | 0.975 | 1.05 | 0.662 | 0.447
NCI-H647 | 1.27 | 1.03 | 0.928 | 0.351 | 0.389 | 0.403 | 0.349 | 0.264 | 1.15 | 1.11 | 0.833 | 0.429 | 0.46 | 0.356 | 0.521 | 0.473 | 1.16 | 1.15 | 1.02 | 0.439
NCI-H1793 | 0.397 | 0.388 | 0.308 | 0.171 | 0.277 | 0.329 | 0.272 | 0.252 | 0.693 | 0.963 | 0.61 | 0.336 | 0.679 | 0.232 | 0.243 | 0.251 | 0.829 | 0.819 | 0.554 | 0.336
NCI-H2087 | 1.04 | 0.945 | 0.943 | 0.674 | 0.225 | 0.226 | 0.184 | 0.217 | 1.12 | 0.926 | 1.06 | 0.952 | 0.809 | 1.34 | 1.4 | 1.33 | 1.12 | 1.02 | 0.918 | 0.944
BEN | 0.0665 | 0.0632 | 0.0606 | 0.0433 | 0.493 | 0.516 | 0.522 | 0.498 | 0.715 | 0.755 | 0.844 | 0.498 | 0.729 | 0.621 | 0.713 | 0.601 | 0.948 | 0.891 | 0.947 | 0.683
NCI-H3122 | 0.986 | 1.04 | 0.966 | 0.475 | 0.187 | 0.179 | 0.201 | 0.193 | 1.01 | 1.15 | 1.13 | 0.737 | 0.936 | 1.04 | 0.979 | 0.91 | 0.988 | 0.963 | 0.681 | 0.354
LCLC-97TM1 | 0.288 | 0.768 | 0.221 | 0.107 | 0.264 | 0.233 | 0.191 | 0.198 | 0.672 | 0.93 | 0.768 | 0.446 | 0.294 | 0.12 | 0.285 | 0.333 | 0.17 | 0.161 | 0.189 | 0.17
EMC-BAC-2 | 1.1 | 1.14 | 1.07 | 0.649 | 0.511 | 0.517 | 0.462 | 0.456 | 0.906 | 0.924 | 0.735 | 0.575 | 1.06 | 1.17 | 1.02 | 0.852 | 0.809 | 0.787 | 0.716 | 0.538
NCI-H1944 | 1.04 | 0.99 | 0.974 | 0.394 | 0.338 | 0.332 | 0.3 | 0.296 | 0.969 | 0.753 | 0.597 | 0.402 | 0.539 | 0.254 | 0.472 | 0.5 | 1.09 | 1.38 | 0.786 | 0.643
A-427 | 0.952 | 0.785 | 1.04 | 0.809 | 0.512 | 0.585 | 0.507 | 0.524 | 0.98 | 1.09 | 1 | 0.932 | 0.751 | 0.596 | 0.598 | 0.601 | 1.11 | 1.13 | 1.1 | 1.08
NCI-H1755 | 1.01 | 1 | 0.889 | 0.571 | 0.461 | 0.419 | 0.388 | 0.43 | 1.04 | 1 | 0.93 | 0.537 | 0.508 | 0.328 | 0.458 | 0.432 | 1.02 | 0.975 | 0.906 | 0.53
NCI-H2085 | 1.08 | 1.17 | 0.864 | 0.416 | 0.433 | 0.558 | 0.397 | 0.522 | 0.767 | 0.767 | 0.535 | 0.391 | 0.85 | 0.954 | 0.918 | 0.769 | 0.86 | 0.835 | 0.786 | 0.334
HOP-62 | 0.955 | 1.1 | 1.06 | 1.01 | 0.407 | 0.468 | 0.452 | 0.485 | 1.15 | 1.44 | 0.931 | 0.742 | 0.734 | 0.336 | 0.437 | 0.71 | 1.03 | 0.868 | 0.759 | 0.779
